This note sets out measurements from ChEMBL document CHEMBL1759905, “Nonsteroidal 2,3-dihydroquinoline glucocorticoid receptor agonists with reduced PEPCK activation” (Bioorg Med Chem Lett, 2011).

Experiment [1] deals with T1, Glucocorticoid receptor (Homo sapiens, UniProt P04150).
T1 sequence (P04150 whole entry): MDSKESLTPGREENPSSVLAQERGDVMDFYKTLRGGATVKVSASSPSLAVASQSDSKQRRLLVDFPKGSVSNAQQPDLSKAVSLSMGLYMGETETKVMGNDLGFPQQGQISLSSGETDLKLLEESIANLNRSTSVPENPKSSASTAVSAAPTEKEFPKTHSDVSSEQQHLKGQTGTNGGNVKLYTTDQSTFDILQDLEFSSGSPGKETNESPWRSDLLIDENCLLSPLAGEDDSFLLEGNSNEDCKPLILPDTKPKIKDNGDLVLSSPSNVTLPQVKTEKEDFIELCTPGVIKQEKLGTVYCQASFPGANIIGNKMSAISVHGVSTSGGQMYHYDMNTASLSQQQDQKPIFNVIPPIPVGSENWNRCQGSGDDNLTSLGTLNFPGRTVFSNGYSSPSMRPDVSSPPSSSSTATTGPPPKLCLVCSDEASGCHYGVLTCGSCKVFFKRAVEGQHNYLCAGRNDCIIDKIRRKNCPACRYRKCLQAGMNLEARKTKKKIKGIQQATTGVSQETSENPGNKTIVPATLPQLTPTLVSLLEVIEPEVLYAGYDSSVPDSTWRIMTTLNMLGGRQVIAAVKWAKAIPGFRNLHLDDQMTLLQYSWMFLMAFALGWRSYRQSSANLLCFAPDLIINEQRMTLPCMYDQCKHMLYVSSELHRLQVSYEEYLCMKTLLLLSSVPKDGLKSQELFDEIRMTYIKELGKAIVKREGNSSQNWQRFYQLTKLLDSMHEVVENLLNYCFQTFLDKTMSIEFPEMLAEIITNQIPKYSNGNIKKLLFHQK
The experiment in a line: Transrepression activity at glucocorticoid receptor in human HepG2 cells assessed as inhibition of TNFalpha/IL1beta-stimulated NFkappaB-dependent E-selectin repression by luciferase reporter gene assay. The format is cell-based.

The target in experiment [2] is T1, Glucocorticoid receptor. The experiment in a line: Displacement of radiolabeled Dexamethasone from glucocorticoid receptor expressed in baculovirus.
The target in experiment [3] is T2, Glucocorticoid receptor (Homo sapiens) (UniProt P04150).
T2 sequence (whole entry): T1 sequence (P04150 whole entry)
Put plainly: Transrepression activity at glucocorticoid receptor in human HepG2 cells assessed as inhibition of TNFalpha/IL1beta-stimulated NFkappaB-dependent E-selectin repression by luciferase reporter gene assay relative to Dexamethasone. The format is cell-based. Set-up: scale not given: the % may be the effect or the level left. (In general: Reporter assays use an easily measured gene product as a stand-in for the process of interest.)

For experiment [4], the target named is T1, Glucocorticoid receptor. Put plainly: Agonist activity at glucocorticoid receptor in human HepG2 cells co-transfected with GRE assessed as GRE activation by luciferase reporter gene assay. The format is functional, cell-based.
The target of experiment [5] is T2, Glucocorticoid receptor (Homo sapiens). Put plainly: Agonist activity at glucocorticoid receptor in human HepG2 cells co-transfected with PEPCK assessed as GRE activation by luciferase reporter gene assay relative to Dexamethasone. The class given is functional, cell-based.
For experiment [6], the target named is T1, Glucocorticoid receptor. The experiment in a line: Transrepression activity at glucocorticoid receptor in human NHDF cells assessed as inhibition of IL-1beta-stimulated AP1 dependent IL-6 repression by ELISA. The format is cell-based. (An ELISA detects its analyte on a solid surface through an enzyme-linked reagent.)
The target in experiment [7] is T2, Glucocorticoid receptor (Homo sapiens). Put plainly: Transrepression activity at glucocorticoid receptor in human NHDF cells assessed as inhibition of IL-1beta-stimulated AP1 dependent IL-6 repression by ELISA relative to Dexamethasone. The class given is cell-based. Set-up: concentration or dose not given beside the values.
Experiment [8] concerns the target T1, Glucocorticoid receptor. Put plainly: Agonist activity at glucocorticoid receptor in human HepG2 cells co-transfected with PEPCK assessed as GRE activation by luciferase reporter gene assay. The format is functional, cell-based.
Experiment [9] has as its target T3, Androgen receptor (Homo sapiens, UniProt P10275).
T3 sequence (P10275 whole entry): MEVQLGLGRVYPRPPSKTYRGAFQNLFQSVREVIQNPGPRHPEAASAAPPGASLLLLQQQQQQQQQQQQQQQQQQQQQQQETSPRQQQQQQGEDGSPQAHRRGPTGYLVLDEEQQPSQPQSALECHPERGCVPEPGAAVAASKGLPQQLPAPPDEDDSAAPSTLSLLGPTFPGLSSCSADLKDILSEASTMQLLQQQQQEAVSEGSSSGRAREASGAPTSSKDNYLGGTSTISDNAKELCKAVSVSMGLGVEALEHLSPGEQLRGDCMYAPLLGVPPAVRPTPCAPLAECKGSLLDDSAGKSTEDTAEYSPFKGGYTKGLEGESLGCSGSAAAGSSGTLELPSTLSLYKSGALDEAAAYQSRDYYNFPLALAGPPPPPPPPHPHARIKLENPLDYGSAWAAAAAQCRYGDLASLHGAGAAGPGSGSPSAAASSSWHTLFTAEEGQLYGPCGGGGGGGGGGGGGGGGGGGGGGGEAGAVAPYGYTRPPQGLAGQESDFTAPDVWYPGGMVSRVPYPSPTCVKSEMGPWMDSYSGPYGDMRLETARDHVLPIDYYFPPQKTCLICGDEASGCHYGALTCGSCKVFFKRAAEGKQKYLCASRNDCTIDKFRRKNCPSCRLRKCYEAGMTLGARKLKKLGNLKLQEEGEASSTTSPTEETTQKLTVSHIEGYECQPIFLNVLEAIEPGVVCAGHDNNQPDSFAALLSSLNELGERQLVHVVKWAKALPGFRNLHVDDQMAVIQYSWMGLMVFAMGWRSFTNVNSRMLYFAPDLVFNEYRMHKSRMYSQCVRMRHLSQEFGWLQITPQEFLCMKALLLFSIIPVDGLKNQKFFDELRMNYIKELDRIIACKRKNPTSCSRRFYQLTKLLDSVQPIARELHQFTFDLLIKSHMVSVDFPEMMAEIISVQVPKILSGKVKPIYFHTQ
The experiment in a line: Binding affinity to androgen receptor.

Experiment [10] has as its target T4, Progesterone receptor (Homo sapiens, UniProt P06401).
T4 sequence (P06401 whole entry): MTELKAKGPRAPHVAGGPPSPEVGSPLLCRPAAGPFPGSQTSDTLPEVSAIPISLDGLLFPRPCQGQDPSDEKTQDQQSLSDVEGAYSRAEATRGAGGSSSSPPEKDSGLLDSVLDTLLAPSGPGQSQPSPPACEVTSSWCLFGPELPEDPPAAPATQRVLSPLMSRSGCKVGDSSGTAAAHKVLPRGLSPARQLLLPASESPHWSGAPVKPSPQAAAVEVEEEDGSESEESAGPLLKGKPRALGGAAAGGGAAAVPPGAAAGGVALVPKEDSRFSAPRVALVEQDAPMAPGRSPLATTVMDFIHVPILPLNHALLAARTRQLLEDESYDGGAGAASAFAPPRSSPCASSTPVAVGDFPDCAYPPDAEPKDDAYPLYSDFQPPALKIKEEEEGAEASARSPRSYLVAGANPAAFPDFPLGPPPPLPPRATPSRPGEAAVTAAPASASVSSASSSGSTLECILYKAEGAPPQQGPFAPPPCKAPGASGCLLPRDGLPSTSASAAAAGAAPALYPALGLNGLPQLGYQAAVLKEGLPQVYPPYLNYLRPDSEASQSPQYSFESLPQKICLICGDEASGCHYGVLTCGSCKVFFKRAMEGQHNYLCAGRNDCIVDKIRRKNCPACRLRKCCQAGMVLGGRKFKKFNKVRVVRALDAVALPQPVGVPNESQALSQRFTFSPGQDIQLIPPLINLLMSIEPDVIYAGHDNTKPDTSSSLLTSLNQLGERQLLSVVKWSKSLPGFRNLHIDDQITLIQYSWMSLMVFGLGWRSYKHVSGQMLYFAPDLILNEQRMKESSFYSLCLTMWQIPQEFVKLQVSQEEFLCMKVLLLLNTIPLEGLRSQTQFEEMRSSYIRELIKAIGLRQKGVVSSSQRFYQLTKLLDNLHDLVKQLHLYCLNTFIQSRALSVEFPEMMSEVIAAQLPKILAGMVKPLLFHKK
The experiment in a line: Binding affinity to progesterone receptor.

The target of experiment [11] is T2, Glucocorticoid receptor (Homo sapiens). Put plainly: Agonist activity at glucocorticoid receptor in human HepG2 cells co-transfected with GRE assessed as GRE activation by luciferase reporter gene assay relative to Dexamethasone. The class given is functional, cell-based. Set-up: concentration or dose not given beside the values.

As to `COC(=O)C(C)(C)O/N=C1\CC(C)(C)Nc2cc(F)c(-c3cccc4c(C)c[nH]c34)c(F)c21`, the IC50 in experiment [1] stood at 22 nM. For the same molecule, the Ki in experiment [2] came to 1.5 nM. Moreover, the Activity in experiment [3] came to 87%.
`CCO/N=C1\CC(C)(C)Nc2cc(F)c(-c3cccc4cc[nH]c34)c(F)c21`: in [1], the half-maximal inhibitory concentration (IC50) worked out at 6.9 nM. This molecule showed an inhibitory constant (Ki) in experiment [2] of 0.4 nM. In experiment [3], the Activity amounted to 91%.
On to `CCO/N=C1/c2c(cc(F)c(-c3cccc4c(C)c[nH]c34)c2F)NC(C)(C)C1O` (racemic), for which the 50% inhibitory concentration (IC50) in experiment [1] was determined as 2.6 nM; in experiment [6], 5.2 nM. The concentration giving a half-maximal response (EC50) was 1.5 nM in [4] and 115 nM in experiment [8]. For the same molecule, the figures for the inhibition constant (Ki) in [2], in experiment [9] and in experiment [10] were 0.6 nM, 430 nM and 27 nM, respectively. In addition, the Activity turned out to be 61% in experiment [5], 97% in experiment [7], 138% in experiment [11] and 98% in experiment [3].
On to `CO/N=C1/c2c(cc(F)c(-c3cccc4c(Cl)c[nH]c34)c2F)NC(C)(C)C1O` (stereo not drawn), for which the IC50 in experiment [1] worked out at 14 nM; in [6] it was 22 nM. This molecule displayed a Ki in experiment [2] of 0.7 nM. For the same molecule, the Activity in experiment [7] was 99%; in experiment [3], 100%.
On to `C[C@]12C=CC(=O)C=C1CC[C@@H]1[C@@H]2[C@@H](O)C[C@@]2(C)[C@H]1CC[C@]2(O)C(=O)CO`, for which the Activity in [11] was 129%.
Consider `Cc1c[nH]c2c(-c3c(F)cc4c(c3F)/C(=N/Oc3ccccc3)CC(C)(C)N4)cccc12`, for which, in experiment [1], the IC50 came to 51 nM. Further, the inhibition constant (Ki) in experiment [2] is 31 nM. In experiment [3], the Activity came to 67%.
As for `CC1(C)C/C(=N\OC(C)(C)C)c2c(cc(F)c(-c3cccc4cc[nH]c34)c2F)N1`, the 50% inhibitory concentration (IC50) stood at 3.5 nM in [1] and 40 nM in experiment [6]. Moreover, affinity in [2] was put at a Ki of 7 nM. Besides, the values for the Activity in [7] and in experiment [3] were 57% and 93%, respectively.
With `C[C@H]1c2c(cc(F)c(-c3cccc4cc[nH]c34)c2F)NC(C)(C)[C@@H]1O`, the Activity in experiment [5] worked out at 75%; in [7], 90%; in experiment [11], 138%. In [8], the EC50 is 53 nM.
Consider `Cc1c[nH]c2c(-c3c(F)cc4c(c3F)/C(=N/OC(C)(C)C(=O)O)CC(C)(C)N4)cccc12`, for which the Ki in [2] came to 2700 nM.
`CC1(C)C/C(=N\O)c2c(cc(F)c(-c3cccc4cc[nH]c34)c2F)N1` came in with a Ki in [2] of 370 nM.
Turning to `Cc1c[nH]c2c(-c3c(F)cc4c(c3F)/C(=N/OCc3ccccc3)CC(C)(C)N4)cccc12`, the IC50 in experiment [1] is 8.8 nM. In experiment [2], this molecule had an inhibitory constant (Ki) of 5.8 nM. The Activity in [3] came out at 74%.
In the same order, the values of `CO/N=C1\CC(C)(C)Nc2cc(F)c(-c3cccc4cc[nH]c34)c(F)c21` are 42 nM, 7 nM and 83%.

As usually defined, the IC50 is the concentration needed to halve the response being measured. By Ki is commonly meant a measure of affinity in units of concentration, obtained from inhibition or displacement. As usually defined, the EC50 is the midpoint of the concentration-response curve.
